These results are taken from EP0993459B1, “COMPOUNDS USEFUL FOR INHIBITION OF FARNESYL PROTEIN TRANSFERASE” (SCHERING CORPORATION, priority 1997, dated 1998).

Molecules are shown by their SMILES. Where only a bound is given, the exact number is not on record here.

One may read the IC50 as the point on the concentration scale where inhibition reaches its midpoint. Read a high IC50 as a need for much substance.

Sequence of farnesyl protein transferase (P49356 whole entry, one chain of several): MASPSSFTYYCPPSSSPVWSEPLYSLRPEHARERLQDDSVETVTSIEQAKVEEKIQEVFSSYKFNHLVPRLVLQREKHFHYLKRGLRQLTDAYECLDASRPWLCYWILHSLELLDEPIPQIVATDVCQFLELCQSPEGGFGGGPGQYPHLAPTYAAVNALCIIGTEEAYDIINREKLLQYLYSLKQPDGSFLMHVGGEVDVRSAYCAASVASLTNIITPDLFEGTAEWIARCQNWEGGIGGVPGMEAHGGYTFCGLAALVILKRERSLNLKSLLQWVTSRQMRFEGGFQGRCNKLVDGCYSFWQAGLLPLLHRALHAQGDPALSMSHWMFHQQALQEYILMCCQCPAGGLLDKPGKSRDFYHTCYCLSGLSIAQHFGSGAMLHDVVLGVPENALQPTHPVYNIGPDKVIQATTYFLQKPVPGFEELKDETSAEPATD

The target in one assay is farnesyl protein transferase (Homo sapiens, UniProt P49354+P49356). In words: FPT IC50, inhibition of farnesyl protein transferase, in vitro enzyme assay (procedure of WO 95/10516). Format: biochemical. The settings on record: one range stated for the whole group of listed compounds, no individual values. The procedure:
(§1) FPT IC50 (inhibition of farnesyl protein transferase, in vitro enzyme assay) and COS Cell IC50 (Cell-Based Assay) were determined following the assay procedures described in WO 95/10516, published April 20, 1995. GGPT IC50 (inhibition of geranylgeranyl protein transferase, in vitro enzyme assay), Cell Mat Assay, and anti-tumor activity (in vivo anti-tumor studies) could be determined by the assay procedures described in WO 95/10516. The disclosure of WO 95/10516 is incorporated herein by reference thereto.
With `COc1ccc2c(c1)CC(CC(=O)N1CCC([C@H]3c4ncc(Br)cc4CCc4cc(Cl)cc(Br)c43)CC1)C2=O` (single isomer, unassigned) [Compound 17.0A], the IC50 was at least 1.9 nM.
`O=C1CCC(CC(=O)N2CCC([C@H]3c4ncc(Br)cc4CCc4cc(Cl)cc(Br)c43)CC2)CC1` [Compound 13.0] gave an IC50 of at least 1.9 nM.
The same measure, in the same setting: the result for `O=C1CCN(CC(=O)N2CCC([C@H]3c4ncc(Br)cc4CCc4cc(Cl)cc(Br)c43)CC2)CC1` [Compound 14.0] reads at least 1.9 nM; that for `O=C1CCC(=CC(=O)N2CCC([C@H]3c4ncc(Br)cc4CCc4cc(Cl)cc(Br)c43)CC2)CC1` [Compound 16.0], at least 1.9 nM.
In the case of `O=C1CCCCC1CC(=O)N1CCC([C@H]2c3ncc(Br)cc3CCc3cc(Cl)cc(Br)c32)CC1` (some centres unmarked) [Compound 18.0], the half-maximal inhibitory concentration (IC50) was at least 1.9 nM.
Compound `O=C1CCCCC1CCC(=O)N1CCC([C@H]2c3ncc(Br)cc3CCc3cc(Cl)cc(Br)c32)CC1` (some centres unmarked) [Compound 19.0] gave an IC50 of at least 1.9 nM.
Compound `C[C@]1(CCC(=O)N2CCC([C@H]3c4ncc(Br)cc4CCc4cc(Cl)cc(Br)c43)CC2)CCCCC1=O` [Compound 20.0] had an IC50 of at least 1.9 nM.
In turn, `O=C(C=C1CCC2(CC1)OCCO2)N1CCC([C@H]2c3ncc(Br)cc3CCc3cc(Cl)cc(Br)c32)CC1` [Compound 21.0] gave an IC50 of at least 1.9 nM.
On the same count and under the same terms, as for `O=C(CC1CCC2(CC1)OCCO2)N1CCC([C@H]2c3ncc(Br)cc3CCc3cc(Cl)cc(Br)c32)CC1` [Compound 22.0], the figure is at least 1.9 nM; as for `O=C(CC1CCC(=NO)CC1)N1CCC([C@H]2c3ncc(Br)cc3CCc3cc(Cl)cc(Br)c32)CC1` (some centres unmarked) [Compound 23.0], at least 1.9 nM.
Still for that read-out and setting: as for `O=C(CN1CCC2(CC1)OCCO2)N1CCC([C@H]2c3ncc(Br)cc3CCc3cc(Cl)cc(Br)c32)CC1` [Compound 24.0], the figure is at least 1.9 nM; as for `CON=C1CCC(CC(=O)N2CCC([C@H]3c4ncc(Br)cc4CCc4cc(Cl)cc(Br)c43)CC2)CC1` (some centres unmarked) [Compound 25.0], at least 1.9 nM; as for `O=C(CN1CCC(=NO)CC1)N1CCC([C@H]2c3ncc(Br)cc3CCc3cc(Cl)cc(Br)c32)CC1` [Compound 26.0], at least 1.9 nM.
Consider `CON=C1CCN(CC(=O)N2CCC([C@H]3c4ncc(Br)cc4CCc4cc(Cl)cc(Br)c43)CC2)CC1` [Compound 27.0], for which the half-maximal inhibitory concentration (IC50) was at least 1.9 nM.
Still for that read-out and setting: as for `O=C(CN1CCC2(CC1)SCCS2)N1CCC([C@H]2c3ncc(Br)cc3CCc3cc(Cl)cc(Br)c32)CC1` [Compound 28.0], the figure is at least 1.9 nM.
`NC(=O)NN=C1CCC(CC(=O)N2CCC([C@H]3c4ncc(Br)cc4CCc4cc(Cl)cc(Br)c43)CC2)CC1` (some centres unmarked) [Compound 29.0] came in with a half-inhibitory concentration (IC50) of at least 1.9 nM.
The compound `CC(=O)NN=C1CCC(CC(=O)N2CCC([C@H]3c4ncc(Br)cc4CCc4cc(Cl)cc(Br)c43)CC2)CC1` (some centres unmarked) [Compound 30.0] returned an IC50 of at least 1.9 nM.
Same read-out and setting: the result for `O=C(O)CON=C1CCC(CC(=O)N2CCC([C@H]3c4ncc(Br)cc4CCc4cc(Cl)cc(Br)c43)CC2)CC1` (some centres unmarked) [Compound 31.0] reads at least 1.9 nM; that for `CC(C)(C)[Si](C)(C)OCCON=C1CCC(CC(=O)N2CCC([C@H]3c4ncc(Br)cc4CCc4cc(Cl)cc(Br)c43)CC2)CC1` (some centres unmarked) [Compound 32.0], at least 1.9 nM.
For `O=C1CCC(C(=O)N2CCC([C@H]3c4ncc(Br)cc4CCc4cc(Cl)cc(Br)c43)CC2)CC1` [Compound 33.0], the IC50 is at least 1.9 nM.
Same read-out and setting: the result for `O=C(C1CCC2(CC1)OCCO2)N1CCC([C@H]2c3ncc(Br)cc3CCc3cc(Cl)cc(Br)c32)CC1` [Compound 34.0] reads at least 1.9 nM; that for `CON=C1CCC(C(=O)N2CCC([C@H]3c4ncc(Br)cc4CCc4cc(Cl)cc(Br)c43)CC2)CC1` (some centres unmarked) [Compound 35.0], at least 1.9 nM; that for `CC(C)(C)OC(=O)N[C@H]1CC[C@@H](C(=O)N2CCC([C@H]3c4ncc(Br)cc4CCc4cc(Cl)cc(Br)c43)CC2)CC1` [Compound 36.0], at least 1.9 nM.
Same read-out and setting: the result for `N[C@H]1CC[C@@H](C(=O)N2CCC([C@H]3c4ncc(Br)cc4CCc4cc(Cl)cc(Br)c43)CC2)CC1` [Compound 37.0] reads at least 1.9 nM.
Turning to `NC(=O)N[C@H]1CC[C@@H](C(=O)N2CCC([C@H]3c4ncc(Br)cc4CCc4cc(Cl)cc(Br)c43)CC2)CC1` [Compound 38.0], the IC50 was at least 1.9 nM.
The compound `CCOC(=O)C(=O)N[C@H]1CC[C@@H](C(=O)N2CCC([C@H]3c4ncc(Br)cc4CCc4cc(Cl)cc(Br)c43)CC2)CC1` [Compound 39.0] gave an IC50 of at least 1.9 nM.
On the same count and under the same terms, the result for `CS(=O)(=O)N[C@H]1CC[C@@H](C(=O)N2CCC([C@H]3c4ncc(Br)cc4CCc4cc(Cl)cc(Br)c43)CC2)CC1` [Compound 40.0] reads at least 1.9 nM; that for `CC(C)(C)OC(=O)NC1CCCC(C(=O)N2CCC([C@H]3c4ncc(Br)cc4CCc4cc(Cl)cc(Br)c43)CC2)C1` (some centres unmarked) [Compound 43.0], at least 1.9 nM; that for `NC1CCCC(C(=O)N2CCC([C@H]3c4ncc(Br)cc4CCc4cc(Cl)cc(Br)c43)CC2)C1` (some centres unmarked) [Compound 44.0], at least 1.9 nM.
The same measure, in the same setting: the result for `NC(=O)NC1CCCC(C(=O)N2CCC([C@H]3c4ncc(Br)cc4CCc4cc(Cl)cc(Br)c43)CC2)C1` (some centres unmarked) [Compound 45.0] reads at least 1.9 nM; that for `CCOC(=O)C(=O)NC1CCCC(C(=O)N2CCC([C@H]3c4ncc(Br)cc4CCc4cc(Cl)cc(Br)c43)CC2)C1` (some centres unmarked) [Compound 46.0], at least 1.9 nM; that for `NC(=O)C(=O)NC1CCCC(C(=O)N2CCC([C@H]3c4ncc(Br)cc4CCc4cc(Cl)cc(Br)c43)CC2)C1` (some centres unmarked) [Compound 49.1], at least 1.9 nM.
Still for that read-out and setting: as for `O=C([C@H]1CC[C@H](O)CC1)N1CCC([C@H]2c3ncc(Br)cc3CCc3cc(Cl)cc(Br)c32)CC1` [Compound 68.0], the figure is at least 1.9 nM.
With `O=C([C@H]1CC[C@@H](O)CC1)N1CCC([C@H]2c3ncc(Br)cc3CCc3cc(Cl)cc(Br)c32)CC1` [Compound 70.0], the 50% inhibitory concentration (IC50) was at least 1.9 nM.

The next assay deals with COS Cell. In words: COS Cell IC50, cell-based assay (procedure of WO 95/10516).
Settings: not given
The procedure: as §1
Regarding `CC(=O)O[C@H]1CC[C@@H](C(=O)N2CCC([C@H]3c4ncc(Br)cc4CCc4cc(Cl)cc(Br)c43)CC2)CC1` [Compound 69.0], the half-maximal inhibitory concentration (IC50) was found to be 30 nM.
